Test results published in the NIST ThermoML archive (doi:10.1016/j.jct.2016.06.010).
± gives the expanded uncertainty stated by the source.

Columns and labels:
[1] = 293.15 K; 101.33 kPa; Liquid; Vibrating tube method
[2] = refractive index (Na D-line) (dimensionless); conditions: 293.15 K; 101.33 kPa; Liquid; Standard Abbe refractometry

CCO [ethanol]
mass density [1]: 789.38 ± 2 kg/m3
refractive index [2]: 1.36134 ± 0.001

CCCO [propan-1-ol]
mass density [1]: 803.85 ± 2 kg/m3
refractive index [2]: 1.38461 ± 0.001

CC12CCC(CC1)C(C)(C)O2 [1,3,3-trimethyl-2-oxabicyclo[2.2.2]octane]
mass density [1]: 924.84 ± 2 kg/m3
refractive index [2]: 1.45756 ± 0.0011

CO [methanol]
mass density [1]: 791.2 ± 2 kg/m3
refractive index [2]: 1.32826 ± 0.001

CCCCO [butan-1-ol]
mass density [1]: 809.75 ± 2 kg/m3
refractive index [2]: 1.39911 ± 0.001
